Results as given in patent US8129527B2, “Analogs of dehydrophenylahistins and their therapeutic use” (Nereus Pharmacuticals, Inc., priority 2006, dated 2012).
Converted amounts (≈) assume the structure as drawn. “And” between values parts separate entries of the source, which are not always exact repeats. Identical values can stand only once. Like-named read-outs stand apart in the source and are kept apart here.

Assays:
MAP-rich microtubules = assay: Microtubule mean length distributions, transmission electron microscopy; assay type: biochemical, bovine; conditions: in words
Protocol: Transmission electron microscopy was used to determine the mean length distribution of microtubules in the absence or presence of tested agent. At 75 minutes and prior to sedimentation, 10 μl aliquots from the polymer mass experiments were fixed by dilution into 290 μl PEM100-buffered 0.2% glutaraldehyde. Thirty microliters of fixed sample was settled onto formvar-coated 150 ICG mesh electron microscope grids for 90 seconds. Excess sample was wicked off with Whatman filter paper. Thirty microliters of cytochrome C (1 mg/ml) was applied for 30 seconds to enhance protofilament resolution and facilitate negative staining. Uranyl acetate (1.5%) was applied for 20 seconds and the excess was wicked off Grids were viewed in a Jeol electron microscope-1200 EX11 at 2000× and 30,000× magnification. The Zeiss MOPIII was used to determine microtubule length distributions and mean lengths for at least 100 microtubules per sample.

Candida albicans = assay: Antifungal susceptibility testing, broth dilution (MIC/MFC); assay type: cell-based
Outline: (§1)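 Tested against two isolates per species (one for C. glabrata). After MIC, fungicidal concentration determined by plating 0.1 μl from MIC and each higher concentration.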

Candida glabrata = assay: as above; assay type: cell-based; conditions: Nakaseomyces glabratus; C. glabrata; read-out: MIC
Outline: as §1

HuVEC = assay: Action on microtubule function, α-tubulin staining; conditions: 2 μM, thirty minutes exposure
HT-29 cells = assay: Additional cytotoxicity assays, resazurin (Table 3.1); assay type: cell-based, human; conditions: Table 3.1
Protocol: (§2) 10× concentrated serial dilutions of the two compounds were prepared in appropriate culture medium for final concentrations ranging from 2.0×10^−5 M to 2.0×10^−10 M. Ten μl volumes of the 10× serial dilutions were added to the test wells in triplicate and the plates returned to the incubator for 48 hours.
(§3) Following 48 hours of drug exposure 10 μl of 0.2 mg/ml resazurin (obtained from Sigma-Aldrich Chemical Co.) in Mg^2+, Ca^2+ free PBS was added to each well and the plates were returned to the incubator for 3-4 hours. […] Resazurin dye without cells was used to determine the background, which was subtracted from the data for all experimental wells. The data were analyzed using Prism software (GraphPad Software).
Additional cytotoxicity assays were performed as described above under this example, using Resazurin fluorescence as an indicator of cell viability.

Trichophyton rubrum = assay: Antifungal susceptibility testing, broth dilution (MIC/MFC); assay type: cell-based; conditions: for MFC / MIC: Trichophyton rubrum
Outline: as §1

Epidermophyton floccosum = assay: as above; assay type: cell-based
Protocol: (§4) Specifically, disclosed compounds were evaluated alongside commercially available microtubulin inhibitors as well as recognized antifungal agents. […].
(§5) Microorganisms against which these compounds were tested included: Candida albicans, Candida glabrata, Aspergillus fumigatus, Trichophyton rubrum, Trichophyton mentagrophytes, Epidermophyton floccosum. With the exception of Candida glabrata (one isolate), two isolates of each species were tested.
(§6) Drug concentrations were 0.03-16 μg/ml for the investigational compounds, 0.015-8 μg/ml for itraconazole and griseofulvin.
(§7) The minimum lethal concentration (MLC) was determined by plating […] from the MIC concentration and each concentration above the MIC. […] When a MIC was obtained, a minimum fungicidal concentration (MFC) was determined to assess the fungistatic/fungicidal nature of the compound. […] The compound is scored as fungistatic if the cells are able to resume growth and fungicidal if no regrowth is possible because the compound had killed the organisms.

[1] = test system: Trichophyton mentagrophytes; assay: as above; assay type: cell-based
Protocol: as §4, §5, §6, §7

Aspergillus fumigatus = assay: as above; assay type: cell-based; conditions: Aspergillus fumigatus, read-out: MIC
Outline: as §1

[2] = test system: PC-3 prostatic adenocarcinoma cells; assay: Tumor cytotoxicity assay, resazurin fluorescence, 48 h (Example 6); assay type: cell-based, human; conditions: Homo sapiens; Table 2; read-out: EC50 (nM) PC-3
Protocol: as §2, §3
PC-3, a human prostate adenocarcinoma, was maintained in F12K complete medium (F12K medium supplemented with 10% FBS; 2 mM Glutamine; 1% HEPES; and Pen/Strep at 100 IU/ml and 100 µg/ml, respectively).

HT-29 human colon cells = assay: as above; assay type: cell-based
[3] = test system: Jurkat cells (human T cell leukemia line); assay: DNA fragmentation (DNA laddering); assay type: cell-based
Text: A late stage characteristic of apoptosis is internucleosomal DNA cleavage that results in a distinctive ladder pattern that can be visualized by gel electrophoresis.

[4] = test system: P388 murine leukemia cells; assay: Cytotoxic effect in P388 cells; assay type: cell-based; conditions: Mus musculus, P388, read-out: IC50 (nM) P-388; Table 2
Text: The cytotoxic effects of phenylahistin, dehydrophenylahistin and various derivatives of dehydrophenylahistin were examined in P388 murine leukemia cells, HT-29 human colon cells, and PC-3 prostatic adenocarcinoma cells.

[5] = test system: MCF-7 (Taxol Sensitive) human breast carcinoma; assay: Drug resistant cell line pair, cytotoxicity (Example 10B); assay type: cell-based
Text: (§8) 3). Human Breast Carcinoma Cell Line Pair: MCF-7 (Taxol Sensitive) and MCF-7/ADR (Taxol Resistant)

[6] = test system: MCF-7/ADR (Taxol Resistant) human breast carcinoma; assay: as above; assay type: cell-based
Text: as §8

[7] = test system: MES-SA/Dx5 (Taxol Resistant) human uterine sarcoma; assay: as above; assay type: cell-based
Text: (§9) 1) Human Uterine Sarcoma Tumor Cell Line Pair: MES-SA (Taxol Sensitive) and MES-SA/Dx5 (Taxol Resistant).

[8] = test system: MES-SA (Taxol Sensitive) human uterine sarcoma; assay: as above; assay type: cell-based; conditions: IC50 CsA Pretreat relative to No CsA
Text: as §9

Jurkat cells = assay: cells; assay type: cell-based
[9] = test system: HL-60/MX-2 (Mitoxantrone-Resistant); assay: Drug resistant cell line pair, cytotoxicity (Example 10B); assay type: cell-based, human; conditions: HL-60 Resistant IC50 relative to HL-60 Sensitive
Text: 2) Human Acute Promyelocytic Leukemia Cell Line Pair: HL-60 (Mitoxantrone-Sensitive) and HL-60/MX-2 (Mitoxantrone-Resistant)

[10] = test system: HL-60/MX2 multidrug resistant; assay: Cell growth inhibition assay, resazurin (Example 11); assay type: cell-based, human
Protocol: Human uterine sarcoma (MES-SA; CRL-1976), its multidrug resistant derivative (MES-SA/Dx5; CRL-1977), human acute promyelocytic leukemia cells (HL-60; CCL-240) and its multidrug resistant derivative (HL-60/MX2; CRL-2257) were purchased from ATCC and maintained in appropriate culture media. The cells were cultured in an incubator at 37° C. in 5% CO2 and 95% humidified air.
For cell growth inhibition assays, MES-SA and MES-SA/Dx5 cells were both seeded at 3×10^3 cells/well in 90 μl complete media into 96 well (Corning; 3904) black-walled, clear-bottom tissue culture plates and the plates were incubated overnight to allow cells to establish and enter log phase growth. HL-60 and HL-60/MX2 cells were both seeded at 5×10^4 cells/well in 90 μl complete media into 96 well plates on the day of compound addition. 20 mM stock solutions of the compounds were prepared in 100% DMSO and stored at −80° C. […] Ten μl volumes of the 10× serial dilutions were added to the test wells in triplicate and the plates returned to the incubator for 48 hours. The final concentration of DMSO was 0.25% in all samples.
Following 48 hours of drug exposure, 10 μl of 0.2 mg/ml resazurin (obtained from Sigma-Aldrich Chemical Co.) in Mg^2+, Ca^2+ free phosphate buffered saline was added to each well and the plates were returned to the incubator for 3-6 hours. […] Resazurin dye in medium without cells was used to determine the background, which was subtracted from the data for all experimental wells.
HL-60/MX2 is a multidrug resistant tumor cell line derived from the human promyelocytic leukemia cell line, HL-60 and expresses reduced topoisomerase II activity. The data presented in Table 20 summarize the growth inhibitory effects of NPI-2421, NPI-2463, NPI-2503, NPI-2504 and NPI-2506 against HL-60 and its multidrug resistant derivative HL-60/MX2. Mitoxantrone, the topoisomerase II targeting agent was included as a control.

[11] = Candida albicans, C. albicans 90028, read-out: MIC
[12] = Trichophyton mentagrophytes, T. mentagrophytes isolate #1
[13] = Trichophyton mentagrophytes, T. mentagrophytes isolate #2

Protocol for human hepatic P450s: In the recent his study, (±)-phenylahistin was treated with rat hepatic microsome or human hepatic P450s.

COc1cc2c(c(OC)c1OC)-c1ccc(OC)c(=O)cc1[C@@H](NC(C)=O)CC2 [Colchicine]
MT nucleation (MAP-rich microtubules): did not affect MT nucleation
MIC (Candida albicans; C. albicans 10231): >128 µg/mL
MIC (Candida albicans; [11]): > 128 µg/mL
MIC (Candida glabrata): > 128 µg/mL
microtubule depolymerization in HuVEC cells (HuVEC): induced microtubule depolymerization

CC(C)(C)c1[nH]cnc1/C=C1\NC(=O)[C@H](Cc2ccccc2)NC1=O [Compound 2460, (−)-tBu-PLH]
EC50 (HT-29 cells; Homo sapiens, HT-29, read-out: EC50 (M) Mean): 2.55e-07 M
% cytotox Mean (HT-29 cells): 87%
MFC (Trichophyton rubrum; T. rubrum isolate #1): 0.125 µg/mL (≈ 0.369 µM)
MIC (Trichophyton rubrum; T. rubrum isolate #1): < 0.03 µg/mL
MFC (Trichophyton rubrum; T. rubrum isolate #2): < 0.03 µg/mL
MIC (Trichophyton rubrum; T. rubrum isolate #2): < 0.03 µg/mL
MIC (Epidermophyton floccosum; E. floccosum isolate #1): > 16 µg/mL
MIC (Epidermophyton floccosum; E. floccosum isolate #2): > 16 µg/mL
MFC [1, 12]: > 16 µg/mL
MIC [1, 12]: 4 µg/mL (≈ 11.8 µM)
MIC [1, 13]: > 16 µg/mL

C=CC(C)(C)c1[nH]cnc1/C=c1\[nH]c(=O)/c(=C/c2ccccc2)[nH]c1=O [KPU-1, Dehydrophenylahistin]
MIC (Aspergillus fumigatus; A. fumigatus isolate #1): > 16 µg/mL
MIC (Aspergillus fumigatus; A. fumigatus isolate #2): > 16 µg/mL
antifungal potency versus T. rubrum (Trichophyton rubrum; in words): significantly less potent than the other compounds
MIC (Candida albicans; [11]): > 68 µg/mL
MIC (Candida glabrata): > 68 µg/mL
EC50 [2]: 4.7 nM
EC50 (HT-29 human colon cells; Homo sapiens, HT-29, Table 2, read-out: EC50 (nM) HT-29): 48 nM
EC50 (HT-29 human colon cells; Homo sapiens, HT-29, Table 5, synthetic potent dehydroPLH derivatives, read-out: EC50): 48 nM
EC50 (HT-29 human colon cells; Table 6, proliferation of HT-29 cells, read-out: EC50): 48 nM
DNA laddering potency compared with KPU-2 [3]: much less potent
IC50 [4]: 36 ± 12.8 nM
antifungal potency versus the sensitive T. mentagrophytes isolate ([1]; in words): weaker but more comparable to the others

CC(=O)O[C@H]1C(=O)[C@@]2(C)[C@H]([C@H](OC(=O)c3ccccc3)[C@]3(O)C[C@H](OC(=O)[C@H](O)[C@@H](NC(=O)c4ccccc4)c4ccccc4)C(C)=C1C3(C)C)[C@]1(OC(C)=O)CO[C@@H]1C[C@@H]2O [Taxol, reference compound]
microtubule depolymerization in HuVEC cells (HuVEC): did not induce microtubule depolymerization
IC50 ([5]; Homo sapiens, MCF7/Taxol, Table 15, read-out: MCF-7 Sensitive IC50): 2.6 nM
potency in the sensitive MCF-7 cell line ([5]; in words): low nanomolar potency
IC50 ([6]; Homo sapiens, NCI/ADR-RES, read-out: MCF-7/ADR Resistant IC 50 nM, Table 15): > 100 nM
MCF-7/ADR Resistant Ratio to Sensitive ([6]; Table 15): >>38
potency in resistant MCF-7/ADR vs sensitive MCF-7 ([6]; in words): virtually inactive in the resistant cell line
effect of Cyclosporin A (CsA) treatment ([7]; CsA pretreatment): restored the sensitivity to taxol
potency in the resistant MES-SA/DX5 line vs the sensitive line ([7]; in words): virtually inactive
Ratio No CsA [8]: 0.6 and 0.4

COC1=CC(=O)C[C@@H](C)[C@]12Oc1c(Cl)c(OC)cc(OC)c1C2=O [griseofulvin, Griseofulvin, reference compound]
MIC (Aspergillus fumigatus; A. fumigatus isolate #2): 0.5 µg/mL (≈ 1.42 µM)
MIC (Trichophyton rubrum; T. rubrum isolate #1): 0.5 µg/mL (≈ 1.42 µM)
MIC (Trichophyton rubrum; T. rubrum isolate #2): < 0.015 µg/mL
MIC (Epidermophyton floccosum; E. floccosum isolate #1): 2 µg/mL (≈ 5.67 µM)
MIC (Epidermophyton floccosum; E. floccosum isolate #2): 4 µg/mL (≈ 11.3 µM)
MIC [1, 12]: 1 µg/mL (≈ 2.83 µM)
MIC [1, 13]: 2 µg/mL (≈ 5.67 µM)

O=C1c2c(O)ccc(O)c2C(=O)c2c(NCCNCCO)ccc(NCCNCCO)c21 [mitoxantrone, Mitoxantrone, reference compound]
IC50 (Jurkat cells; Homo sapiens, Jurkat, read-out: Cytotoxicity Potency IC50): 41 nM
Cytotoxicity Efficacy % Cell Death (Jurkat cells; human): 99%
Ratio to Sensitive [9]: 24.1
reduced susceptibility of the MES-SA/DX5 cell line ([7]; vs MES-SA): 20 fold
Fold change ([10]; ratio of EC50 values (HL-60/MX2:HL-60)): 26
less active against the resistant HL-60/MX2 cells ([10]; vs HL-60): ~26 times

(±)-phenylahistin
major metabolites P1 and P3, share of the recovered metabolites (human hepatic P450s): more than 60%
metabolites detected (human hepatic P450s): at least seven metabolites were detected

phenylahistin [halimide, reference compound]
DNA laddering potency compared with KPU-2 [3]: much less potent
